Source: PubChem BioAssay AID2060510 (Molecular Pharmacology Branch, DTP, NCI, 2025)

Test system: 439559-082-T-J2-PDC spheroids viability
Experiment: Anticancer human tumor 439559-082-T-J2-PDC patient-derived colon adenocarcinoma cell line growth inhibition [GQUAD]
Conditions: for IC50: curve of first compound; for viability, T/C: stronger effect = lower value
Procedure, shortened: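 Multi-cell-type spheroids of tumor cells with HUVEC and mesenchymal stem cells, treated with drug combinations. Concentrations descend in half-log steps from near clinical Cmax, or from 10 microM where Cmax is unknown; viability read-out.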

[1] = second compound 0.0316 µM, first compound 0.0316 µM
[2] = second compound 0.0316 µM, first compound 0.1 µM
[3] = second compound 0.0316 µM, first compound 0.316 µM
[4] = second compound 0.0316 µM, first compound 1 µM
[5] = second compound 0.0316 µM, first compound 3.16 µM
[6] = second compound 0.0316 µM, first compound 10 µM
[7] = second compound 0.1 µM, first compound 0.0316 µM
[8] = second compound 0.1 µM, first compound 0.1 µM
[9] = second compound 0.1 µM, first compound 0.316 µM
[10] = second compound 0.1 µM, first compound 1 µM
[11] = second compound 0.1 µM, first compound 3.16 µM
[12] = second compound 0.1 µM, first compound 10 µM
[13] = second compound 0.316 µM, first compound 0.0316 µM
[14] = second compound 0.316 µM, first compound 0.1 µM
[15] = second compound 0.316 µM, first compound 0.316 µM
[16] = second compound 0.316 µM, first compound 1 µM
[17] = second compound 0.316 µM, first compound 3.16 µM
[18] = second compound 0.316 µM, first compound 10 µM
[19] = second compound 1 µM, first compound 0.0316 µM
[20] = second compound 1 µM, first compound 0.1 µM
[21] = second compound 1 µM, first compound 0.316 µM
[22] = second compound 1 µM, first compound 1 µM
[23] = second compound 1 µM, first compound 3.16 µM
[24] = second compound 1 µM, first compound 10 µM
[25] = second compound 3.16 µM, first compound 0.0316 µM
[26] = second compound 3.16 µM, first compound 0.1 µM
[27] = second compound 3.16 µM, first compound 0.316 µM
[28] = second compound 3.16 µM, first compound 1 µM
[29] = second compound 3.16 µM, first compound 3.16 µM
[30] = second compound 3.16 µM, first compound 10 µM
[31] = second compound 10 µM, first compound 0.0316 µM
[32] = second compound 10 µM, first compound 0.1 µM
[33] = second compound 10 µM, first compound 0.316 µM
[34] = second compound 10 µM, first compound 1 µM
[35] = second compound 10 µM, first compound 3.16 µM
[36] = second compound 10 µM, first compound 10 µM
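Note: spheroids exposed to the agents for 7 days before readout.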
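Throughout, for viability, T/C: percent of luminescence signal in DMSO vehicle wells taken as 100% viability.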

Compound `C=CCn1c(=O)c2cnc(Nc3ccc(N4CCN(C)CC4)cc3)nc2n1-c1cccc(C(C)(C)O)n1` + Cc1cnc(CNC(=O)c2c(=O)c3ccc(N4CCCN(C)CC4)nc3n3c2sc2ccccc23)cn1 has an IC50 (second compound 0.0316 µM) of 2610 nM, an IC50 (second compound 0.1 µM) of 2530 nM and an IC50 (second compound 0.316 µM) of 1740 nM. For the same compound, the IC50 (second compound 1 µM) was 1400 nM, the IC50 (second compound 3.16 µM) was 1280 nM and the IC50 (second compound 10 µM) was 1080 nM. The viability, T/C [1] was 95.4%, the viability, T/C [2] was 93.7% and the viability, T/C [3] was 88.8%. It also gave a viability, T/C [4] of 83.7%, a viability, T/C [5] of 43.2% and a viability, T/C [6] of 25.4%. The viability, T/C [7] was 104%, the viability, T/C [8] was 83.6% and the viability, T/C [9] was 91.4%. For the same compound, the viability, T/C [10] was 76%, the viability, T/C [11] was 43.1% and the viability, T/C [12] was 22.2%. It also gave a viability, T/C [13] of 84.6%, a viability, T/C [14] of 87.5% and a viability, T/C [15] of 73.5%. The viability, T/C [16] was 66.3%, the viability, T/C [17] was 33.8% and the viability, T/C [18] was 24%. The viability, T/C [19] was 83.2%, the viability, T/C [20] was 87.9% and the viability, T/C [21] was 72.1%. It also gave a viability, T/C [22] of 61.8%, a viability, T/C [23] of 27.3% and a viability, T/C [24] of 20.2%. It also gave a viability, T/C [25] of 73.3%, a viability, T/C [26] of 63.6% and a viability, T/C [27] of 68.3%. For the same compound, the viability, T/C [28] was 56.8%, the viability, T/C [29] was 25.1% and the viability, T/C [30] was 18.5%. For the same compound, the viability, T/C [31] was 66.2%, the viability, T/C [32] was 53.9% and the viability, T/C [33] was 61.2%. For the same compound, the viability, T/C [34] was 51.1%, the viability, T/C [35] was 31.2% and the viability, T/C [36] was 13.8%.
`COc1ncnc(C2CC2)c1-c1ncc2cnn(Cc3ccc(-c4nc(C(F)(F)F)cn4C(C)C)cc3)c2n1` + Cc1cnc(CNC(=O)c2c(=O)c3ccc(N4CCCN(C)CC4)nc3n3c2sc2ccccc23)cn1 gave an IC50 (second compound 0.0316 µM) greater than 10000 nM, an IC50 (second compound 0.1 µM) greater than 10000 nM and an IC50 (second compound 0.316 µM) greater than 10000 nM. It also gave an IC50 (second compound 1 µM) greater than 10000 nM, an IC50 (second compound 3.16 µM) greater than 10000 nM and an IC50 (second compound 10 µM) greater than 10000 nM. The viability, T/C [1] was 106%, the viability, T/C [2] was 92% and the viability, T/C [3] was 93.4%. For the same compound, the viability, T/C [4] was 105%, the viability, T/C [5] was 95.5% and the viability, T/C [6] was 97.5%. It also gave a viability, T/C [7] of 103%, a viability, T/C [8] of 101% and a viability, T/C [9] of 87.4%. For the same compound, the viability, T/C [10] was 95.4%, the viability, T/C [11] was 97.6% and the viability, T/C [12] was 96.5%. The viability, T/C [13] was 86.5%, the viability, T/C [14] was 85.1% and the viability, T/C [15] was 89.5%. The viability, T/C [16] was 79.3%, the viability, T/C [17] was 93.5% and the viability, T/C [18] was 77.4%. The viability, T/C [19] was 74.4%, the viability, T/C [20] was 78% and the viability, T/C [21] was 64.9%. It also gave a viability, T/C [22] of 81.8%, a viability, T/C [23] of 83.7% and a viability, T/C [24] of 73%. The viability, T/C [25] was 66.4%, the viability, T/C [26] was 69.3% and the viability, T/C [27] was 69.2%. The viability, T/C [28] was 69.6%, the viability, T/C [29] was 70% and the viability, T/C [30] was 69%. It also gave a viability, T/C [31] of 66.8%, a viability, T/C [32] of 58% and a viability, T/C [33] of 58.9%. It also gave a viability, T/C [34] of 66.3%, a viability, T/C [35] of 67% and a viability, T/C [36] of 63.9%.
